Test results published in PubChem BioAssay (NCI).
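Method: 48-hour compound exposure of cells in 96-well plates, five concentrations, linear interpolation of endpoints. TGI denotes the concentration required for complete inhibition of growth.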

Experiments:
Assay in all cases: NCI anticancer screen, dose series, 48 h
[1] = system: K-562 leukemia
[2] = system: HOP-92 NSCLC
[3] = system: SR leukemia
[4] = system: HL-60(TB) leukemia
[5] = system: SK-MEL-5 melanoma
[6] = system: NCI-H23 lung
[7] = system: A498 renal
[8] = system: HT29 colon
[9] = system: XF 498 CNS
[10] = system: UACC-62 melanoma
[11] = system: MOLT-4 leukemia
[12] = system: HOP-62 NSCLC
[13] = system: KM12 colon
[14] = system: NCI-H226 lung
[15] = system: OVCAR-5 ovarian
[16] = system: SNB-78 CNS
[17] = system: LOX IMVI melanoma
[18] = system: SK-MEL-2 melanoma
[19] = system: SK-MEL-28 melanoma
[20] = system: HCT-116 colon
[21] = system: HCC-2998 colon
[22] = system: HOP-18 NSCLC
[23] = system: U251 CNS
[24] = system: SK-OV-3 ovarian
[25] = system: LXFL 529 NSCLC
[26] = system: DLD-1 colon
[27] = system: DMS 114 small cell lung
[28] = system: UO-31 renal
[29] = system: M14 melanoma
[30] = system: HCT-15 colon
[31] = system: OVCAR-8 ovarian
[32] = system: COLO 205 colon
[33] = system: CCRF-CEM leukemia
[34] = system: RXF-631 renal
[35] = system: ACHN renal
[36] = system: IGROV1 ovarian
[37] = system: SN12C renal
[38] = system: TK-10 renal
[39] = system: SW-620 colon
[40] = system: DMS 273 small cell lung
[41] = system: KM20L2 colon
[42] = system: M19-MEL melanoma
[43] = system: A549 NSCLC
[44] = system: SF-268 CNS
[45] = system: NCI-H460 lung
[46] = system: RPMI-8226 leukemia
[47] = system: SF-539 CNS
[48] = system: SF-295 CNS
[49] = system: OVCAR-3 ovarian
[50] = system: SNB-75 CNS
[51] = system: UACC-257 melanoma
[52] = system: RXF 393 renal
[53] = system: EKVX NSCLC
[54] = system: OVCAR-4 ovarian
[55] = system: MALME-3M melanoma
[56] = system: SNB-19 CNS
[57] = system: CAKI-1 renal
[58] = system: NCI-H522 lung
[59] = system: 786-0 renal

## Cc1ccc(Oc2ccc(C)cc2[N+](=O)[O-])cc1
[1]
  TGI: > 100 µM
[2]
  TGI: > 100 µM
[3]
  TGI: > 100 µM
[4]
  TGI: 79.7 µM
[5]
  TGI: 92.6 µM
[6]
  TGI: > 100 µM
[7]
  TGI: > 100 µM
[8]
  TGI: > 100 µM
[9]
  TGI: 64.5 µM
[10]
  TGI: > 100 µM
[11]
  TGI: > 100 µM
[12]
  TGI: > 100 µM
[13]
  TGI: > 100 µM
[14]
  TGI: > 100 µM
[15]
  TGI: > 100 µM
[16]
  TGI: 95 µM
[17]
  TGI: > 100 µM
[18]
  TGI: > 100 µM
[19]
  TGI: > 100 µM
[20]
  TGI: > 100 µM
[21]
  TGI: > 100 µM
[22]
  TGI: > 100 µM
[23]
  TGI: > 100 µM
[24]
  TGI: > 100 µM
[25]
  TGI: > 100 µM
[26]
  TGI: > 100 µM
[27]
  TGI: > 100 µM
[28]
  TGI: > 100 µM
[29]
  TGI: > 100 µM
[30]
  TGI: > 100 µM
[31]
  TGI: > 100 µM
[32]
  TGI: > 100 µM
[33]
  TGI: > 100 µM
[34]
  TGI: > 100 µM
[35]
  TGI: > 100 µM
[36]
  TGI: > 100 µM
[37]
  TGI: > 100 µM
[38]
  TGI: > 100 µM
[39]
  TGI: > 100 µM
[40]
  TGI: > 100 µM
[41]
  TGI: > 100 µM
[42]
  TGI: > 100 µM
[43]
  TGI: > 100 µM
[44]
  TGI: > 100 µM
[45]
  TGI: > 100 µM
[46]
  TGI: > 100 µM
[47]
  TGI: > 100 µM
[48]
  TGI: > 100 µM
[49]
  TGI: > 100 µM
[50]
  TGI: > 100 µM
[51]
  TGI: > 100 µM
[52]
  TGI: 92.7 µM
[53]
  TGI: > 100 µM
[54]
  TGI: > 100 µM
[55]
  TGI: > 100 µM

## CN(C)c1ccc(C=C2C(=O)OC(C)(C)OC2=O)cc1Br
[1]
  TGI: > 100 µM
[2]
  TGI: > 100 µM
[3]
  TGI: > 100 µM
[4]
  TGI: > 100 µM
[5]
  TGI: > 100 µM
[6]
  TGI: > 100 µM
[8]
  TGI: > 100 µM
[9]
  TGI: > 100 µM
[10]
  TGI: > 100 µM
[11]
  TGI: > 100 µM
[12]
  TGI: > 100 µM
[13]
  TGI: > 100 µM
[14]
  TGI: > 100 µM
[56]
  TGI: > 100 µM
[15]
  TGI: > 100 µM
[17]
  TGI: > 100 µM
[18]
  TGI: > 100 µM
[19]
  TGI: > 100 µM
[20]
  TGI: > 100 µM
[21]
  TGI: > 100 µM
[22]
  TGI: > 100 µM
[23]
  TGI: > 100 µM
[24]
  TGI: > 100 µM
[25]
  TGI: > 100 µM
[26]
  TGI: > 100 µM
[27]
  TGI: > 100 µM
[28]
  TGI: > 100 µM
[29]
  TGI: > 100 µM
[31]
  TGI: > 100 µM
[32]
  TGI: > 100 µM
[33]
  TGI: > 100 µM
[34]
  TGI: > 100 µM
[35]
  TGI: > 100 µM
[37]
  TGI: > 100 µM
[38]
  TGI: > 100 µM
[39]
  TGI: > 100 µM
[40]
  TGI: > 100 µM
[41]
  TGI: > 100 µM
[42]
  TGI: > 100 µM
[43]
  TGI: > 100 µM
[44]
  TGI: > 100 µM
[57]
  TGI: > 100 µM
[45]
  TGI: > 100 µM
[46]
  TGI: > 100 µM
[47]
  TGI: > 100 µM
[48]
  TGI: > 100 µM
[49]
  TGI: > 100 µM
[50]
  TGI: > 100 µM
[51]
  TGI: > 100 µM
[58]
  TGI: > 100 µM
[52]
  TGI: > 100 µM
[53]
  TGI: > 100 µM
[54]
  TGI: > 100 µM
[59]
  TGI: > 100 µM
[55]
  TGI: > 100 µM
